Data set [1] is described as follows: Fluorescence measurement of azido probe and EE2-probe adduct (spectrometer). The format is physicochemical. To be noted: excited at λ=319 nm; initial measurements. From the text:
A feature of the probes herein described is the means by which a readable fluorescent signal can be reliably detected once the azidonaphthalimidoyl probe (see Example 1, compound 3) reacts with EE2. Thus, fluorescent measurements can be conducted on azido probe 3 (Example 1) before and after its reaction with commercially available 17α-ethinylestradiol (EE2, 1) (FIG. 5). […] Thus, the fluorescence profile of the EE2-probe adduct 4 can be obtained at different concentrations in order to obtain the lowest limit of detection for this analytical approach (Panel 1 of FIG. 5). Once that lower limit has been determined, a second set of experiments can be undertaken to test the efficacy and fidelity of the Click reaction. […] After the overnight run, the samples can be extracted into an organic layer (CH2Cl2 or diethyl ether), evaporated, redissolved in the solvent of choice for the fluorescence measurements (e.g. H2O, or a combination of MeOH/H2O) and their fluorescent intensities measured. This second set of experiments is designed to test the real case scenario where the actual, unknown EE2 concentration in a given sample can be detected using the azido probe.
Once an azido probe as herein described (e.g. 3) is synthesized (Example 1), it can be reacted with commercially available EE2. […] The calculated Stokes' shift based on this preliminary measurements is Δλ=48 nm.

Data set [2] in a line: Visual fluorescence analysis with a UV lamp (long wavelength, 365 nm). To be noted: λ=365 nm; equimolar solutions of probe and adduct. The format is physicochemical. From the text:
Both vials contain equimolar amounts of the azido probe and EE2-probe adduct respectively.
Once an azido probe as herein described (e.g. 3) is synthesized (Example 1), it can be reacted with commercially available EE2. For example, reaction of azido probe 3 with EE2 in the presence of CuSO4.5H2O and sodium ascorbate in a 2:1 tert-butanol-water mixture at room temperature overnight yielded the triazole-containing EE2-probe adduct 4 in nearly quantitative yield (>95%) as an off-white solid after column chromatography. The use of another source of Cu(I) ion such as CuBr or CuI can be employed in this step, eliminating the need for sodium ascorbate. However, copper(I) halides can be avoided if a reduction in unwanted background fluorescence when using the spectrophotometer is desired. If a cost reduction is desired, instead of copper(I) halides readily available and inexpensive Cu(II) sulfate pentahydrate and sodium ascorbate can be purchased in multigram quantities and used in reactions with EE2. […] The calculated Stokes' shift based on this preliminary measurements is Δλ=48 nm.

Molecules are shown by their SMILES.

On to `[N-]=[N+]=Nc1ccc2c3c(cccc13)C(=O)N(CCOCCO)C2=O` [Probe 3], for which, in data set [1], the “fluorescence of the probe” value is given as “marginal fluorescence”. In addition, in data set [2], the “qualitative fluorescence under UV lamp” value was “does not”.

The record behind these values is patent US9791463B2, “Methods for the selective detection of alkyne-presenting molecules and related compositions and systems” (Lawrence Livermore National Security, LLC, priority 2013, dated 2017).
